# Assay: Effect on body weight of guinea pigs (Example 23)
# Format: in vivo, guinea pig
# Conditions: 4 days after two successive dosing, 100 μg/kg s.c. (albumin 80 mg/kg), compared with saline group
# Text: 44 male healthy guinea pigs were provided, and the body weight of each guinea pig was about 300 g.
substance,measurement,value
"chicken ovalbumin [chicken ovalbumin, albumin group in the guinea pig allergy test]",decrease of body weight,did not decrease

# — US8575097B2, “Exendin variant and conjugate thereof” (Pegbio Co., Ltd., priority 2009, dated 2013)
